Earlier results, collected in US8044020B2, “Pharmaceutical compositions and methods for insulin treatment” (CPEX Pharmaceuticals, Inc., priority 2003, dated 2011).

Conditions: beagles; previously determined (Hseih, 1993)

## O=C1CCCCCCCCCCCCCCO1 [Cyclopentadecanolide]
  effect on migration of insulin through the nasal mucosa: facilitates the migration of insulin through the nasal mucosa
